Results on 20 molecules are retold here after PubChem BioAssay (NCI).

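Briefly, cells in 96-well plates were exposed to five compound concentrations for 48 h, and endpoints were estimated by linear interpolation. At the GI50, growth is halved. At the TGI there is no net growth.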

The first assay deals with OVCAR-5 ovarian. Briefly: growth of human tumour cells (NCI), 48 h.
Take `Oc1c(C(Nc2cccc3cccnc23)c2ccccc2)ccc2cccnc12` (centres undefined): the TGI is above 100 µM.
With `CN(O)c1nc(N(C)O)nc(N2CCOCC2)n1`, the GI50 was 41.2 µM and the TGI is above 100 µM.
For the molecule `COc1ccc(-c2c[nH]c(C(=O)O)c2-c2cc(OC)c(OC)c(OC)c2)cc1`, the GI50 is 9.98 µM and the TGI is above 100 µM.
As for `C#Cc1c(F)ccc2cc(O)cc(-c3ncc4c(N5CC6CCC(C5)N6)nc(OC[C@@]56CCCN5C[C@H](F)C6)nc4c3F)c12`, the GI50 is 2.51 µM and the TGI is 13.5 µM.
Regarding `C=C(C)C(=O)Nc1ccc(NC(C)C)cc1`, the GI50 is above 100 µM and the TGI was above 100 µM.
Consider `COc1cc(CSc2nc3ccc(C)cc3c(=O)n2-c2ccccc2)cc(OC)c1OC`, for which the GI50 was 6.26 µM and the TGI was above 100 µM.
Take `C=C(C)C(=O)O[C@H]1CC(=C)[C@@H]2C[C@H](O)[C@](O)(CCl)[C@@H]2[C@H]2OC(=O)C(=C)[C@@H]21`: the GI50 was 14.8 µM and the TGI worked out at 29.6 µM.
Take `O=C(O)CNC(=O)c1ccc(-c2ccccc2)cc1`: the TGI was above 100 µM.
`CCC1C2Cc3ccc(O)cc3C1(CC)CCN2C` (centres undefined) yielded a TGI above 100 µM.
`C(#Cc1ccccc1C#Cc1cccs1)c1cccs1`: the GI50 is 25.6 µM and the TGI worked out at 83.2 µM.
Regarding `COC1CC(OS(=O)(=O)c2ccc([N+](=O)[O-])cc2)C(OC(=O)c2ccccc2)C(C)O1` (centres undefined), the TGI is above 100 µM.
The molecule `COc1ccc(C2=CC(c3ccc4c(c3)OCO4)c3c(c4ccccc4oc3=O)O2)cc1OC` (centres undefined) came in with a TGI above 100 µM.
Regarding `C=C1C(=O)O[C@H]2[C@H]1CC/C(COC(=O)NCc1cn(C)c3ccccc13)=C\CC[C@@]1(C)O[C@@H]21`, the GI50 was 1.72 µM and the TGI was determined as 3.96 µM.
Consider `CC(C)[C@H](N)C(=O)N1CCC[C@H]1B(O)O`, for which the GI50 is above 100 µM and the TGI was above 100 µM.
On to `COc1ccc2cc(C(=O)/C=C/c3ccc(Cl)cc3Cl)ccc2c1`, for which the GI50 is 48.4 µM and the TGI was above 100 µM.
As for `CC(C)(C)n1cc(-c2ccnc(NCCCNS(=O)(=O)c3ccc(C(F)(F)F)cc3)c2)c(-c2cccc(O)c2)n1`, the GI50 is 1.81 µM and the TGI was found to be 3.4 µM.
On to `O=C1Nc2ccccc2/C1=C/C(=O)c1coc2c1C(=O)c1ccccc1C2=O`, for which the GI50 was above 100 µM and the TGI is above 100 µM.
In the case of `Nc1c(C(=O)c2cccc(-c3ccncc3)c2)cnn1-c1ccc(F)cc1F`, the GI50 was above 25 µM and the TGI is above 25 µM.
On to `C=C1C(=O)O[C@H]2[C@H]1CC/C(COC(=O)NCc1ccc(Cn3c(=O)sn(CCCl)c3=O)cc1)=C\CC[C@@]1(C)O[C@@H]21`, for which the GI50 is 1.97 µM and the TGI turned out to be 4.19 µM.
In the case of `COc1ccc2c(c1)c(=O)oc1cc(OC/C(C)=N\O)ccc12`, the GI50 was above 100 µM and the TGI was above 100 µM.

A further assay concerns SNB-19 CNS. Briefly: growth of human tumour cells (NCI), 48 h.
In turn, `Oc1c(C(Nc2cccc3cccnc23)c2ccccc2)ccc2cccnc12` (centres undefined) gave a TGI above 100 µM.
In the case of `CN(O)c1nc(N(C)O)nc(N2CCOCC2)n1`, the GI50 was 7.35 µM and the TGI was above 100 µM.
For `COc1ccc(-c2c[nH]c(C(=O)O)c2-c2cc(OC)c(OC)c(OC)c2)cc1`, the GI50 is 7.24 µM and the TGI was above 100 µM.
As for `C#Cc1c(F)ccc2cc(O)cc(-c3ncc4c(N5CC6CCC(C5)N6)nc(OC[C@@]56CCCN5C[C@H](F)C6)nc4c3F)c12`, the GI50 is 13.4 µM and the TGI is 26.3 µM.
Regarding `C=C(C)C(=O)Nc1ccc(NC(C)C)cc1`, the GI50 is above 100 µM and the TGI is above 100 µM.
With `COc1cc(CSc2nc3ccc(C)cc3c(=O)n2-c2ccccc2)cc(OC)c1OC`, the GI50 was 13.8 µM and the TGI was above 100 µM.
`C=C(C)C(=O)O[C@H]1CC(=C)[C@@H]2C[C@H](O)[C@](O)(CCl)[C@@H]2[C@H]2OC(=O)C(=C)[C@@H]21`: the GI50 is 16.6 µM and the TGI turned out to be 32.2 µM.
For `O=C(O)CNC(=O)c1ccc(-c2ccccc2)cc1`, the TGI is above 100 µM.
`CCC1C2Cc3ccc(O)cc3C1(CC)CCN2C` (centres undefined) had a TGI above 100 µM.
Consider `C(#Cc1ccccc1C#Cc1cccs1)c1cccs1`, for which the GI50 is above 100 µM and the TGI was above 100 µM.
Turning to `COC1CC(OS(=O)(=O)c2ccc([N+](=O)[O-])cc2)C(OC(=O)c2ccccc2)C(C)O1` (centres undefined), the TGI is above 100 µM.
Turning to `COc1ccc(C2=CC(c3ccc4c(c3)OCO4)c3c(c4ccccc4oc3=O)O2)cc1OC` (centres undefined), the TGI is above 100 µM.
`C=C1C(=O)O[C@H]2[C@H]1CC/C(COC(=O)NCc1cn(C)c3ccccc13)=C\CC[C@@]1(C)O[C@@H]21`: the GI50 is 2.84 µM and the TGI is 13 µM.
For `CC(C)[C@H](N)C(=O)N1CCC[C@H]1B(O)O` the same measures were above 100 µM and above 100 µM.
For the molecule `COc1ccc2cc(C(=O)/C=C/c3ccc(Cl)cc3Cl)ccc2c1`, the GI50 was 25.7 µM and the TGI stood at 71.5 µM.
For the molecule `CC(C)(C)n1cc(-c2ccnc(NCCCNS(=O)(=O)c3ccc(C(F)(F)F)cc3)c2)c(-c2cccc(O)c2)n1`, the GI50 is 1.98 µM and the TGI was determined as 3.83 µM.
As to `O=C1Nc2ccccc2/C1=C/C(=O)c1coc2c1C(=O)c1ccccc1C2=O`, the GI50 was above 100 µM and the TGI is above 100 µM.
As for `Nc1c(C(=O)c2cccc(-c3ccncc3)c2)cnn1-c1ccc(F)cc1F`, the GI50 is above 19.3 µM and the TGI is above 25 µM.
For `C=C1C(=O)O[C@H]2[C@H]1CC/C(COC(=O)NCc1ccc(Cn3c(=O)sn(CCCl)c3=O)cc1)=C\CC[C@@]1(C)O[C@@H]21`, the GI50 was 11.9 µM and the TGI came to 26.1 µM.
Take `COc1ccc2c(c1)c(=O)oc1cc(OC/C(C)=N\O)ccc12`: the GI50 is 48.3 µM and the TGI is above 100 µM.

A further assay deals with SW-620 colon. Briefly: growth of human tumour cells (NCI), 48 h.
`Oc1c(C(Nc2cccc3cccnc23)c2ccccc2)ccc2cccnc12` (centres undefined) returned a TGI above 100 µM.
As for `CN(O)c1nc(N(C)O)nc(N2CCOCC2)n1`, the GI50 was 11.2 µM and the TGI is above 100 µM.
Consider `COc1ccc(-c2c[nH]c(C(=O)O)c2-c2cc(OC)c(OC)c(OC)c2)cc1`, for which the GI50 is 3.94 µM and the TGI is above 100 µM.
For `C#Cc1c(F)ccc2cc(O)cc(-c3ncc4c(N5CC6CCC(C5)N6)nc(OC[C@@]56CCCN5C[C@H](F)C6)nc4c3F)c12`, the GI50 was 1.32 µM and the TGI was 10.3 µM.
`C=C(C)C(=O)Nc1ccc(NC(C)C)cc1`: the GI50 is above 100 µM and the TGI was above 100 µM.
In the case of `COc1cc(CSc2nc3ccc(C)cc3c(=O)n2-c2ccccc2)cc(OC)c1OC`, the GI50 was 0.91 µM and the TGI is above 100 µM.
For `C=C(C)C(=O)O[C@H]1CC(=C)[C@@H]2C[C@H](O)[C@](O)(CCl)[C@@H]2[C@H]2OC(=O)C(=C)[C@@H]21` the same measures were 2.08 µM and 4.57 µM.
`O=C(O)CNC(=O)c1ccc(-c2ccccc2)cc1`: the TGI is above 100 µM.
The same measure, in the same setting: the same measure for `CCC1C2Cc3ccc(O)cc3C1(CC)CCN2C` (centres undefined): above 100 µM.
For the molecule `C(#Cc1ccccc1C#Cc1cccs1)c1cccs1`, the GI50 was 42 µM and the TGI is above 100 µM.
Regarding `COC1CC(OS(=O)(=O)c2ccc([N+](=O)[O-])cc2)C(OC(=O)c2ccccc2)C(C)O1` (centres undefined), the TGI is above 100 µM.
The molecule `COc1ccc(C2=CC(c3ccc4c(c3)OCO4)c3c(c4ccccc4oc3=O)O2)cc1OC` (centres undefined) yielded a TGI above 100 µM.
With `C=C1C(=O)O[C@H]2[C@H]1CC/C(COC(=O)NCc1cn(C)c3ccccc13)=C\CC[C@@]1(C)O[C@@H]21`, the GI50 was 0.524 µM and the TGI came to 1.98 µM.
Turning to `CC(C)[C@H](N)C(=O)N1CCC[C@H]1B(O)O`, the GI50 is above 100 µM and the TGI is above 100 µM.
For `COc1ccc2cc(C(=O)/C=C/c3ccc(Cl)cc3Cl)ccc2c1`, the GI50 is 7.83 µM and the TGI amounted to 25.5 µM.
`CC(C)(C)n1cc(-c2ccnc(NCCCNS(=O)(=O)c3ccc(C(F)(F)F)cc3)c2)c(-c2cccc(O)c2)n1`: the GI50 was 1.89 µM and the TGI turned out to be 3.71 µM.
For `O=C1Nc2ccccc2/C1=C/C(=O)c1coc2c1C(=O)c1ccccc1C2=O`, the GI50 is 99.6 µM and the TGI was above 100 µM.
For `Nc1c(C(=O)c2cccc(-c3ccncc3)c2)cnn1-c1ccc(F)cc1F` the same measures were 3.12 µM and above 25 µM.
For the molecule `C=C1C(=O)O[C@H]2[C@H]1CC/C(COC(=O)NCc1ccc(Cn3c(=O)sn(CCCl)c3=O)cc1)=C\CC[C@@]1(C)O[C@@H]21`, the GI50 is 1.17 µM and the TGI came to 2.69 µM.
For `COc1ccc2c(c1)c(=O)oc1cc(OC/C(C)=N\O)ccc12`, the GI50 is above 100 µM and the TGI is above 100 µM.

The test system of the next assay is U251 CNS. Briefly: growth of human tumour cells (NCI), 48 h.
On to `CN(O)c1nc(N(C)O)nc(N2CCOCC2)n1`, for which the GI50 was 1.25 µM and the TGI was above 100 µM.
Take `COc1ccc(-c2c[nH]c(C(=O)O)c2-c2cc(OC)c(OC)c(OC)c2)cc1`: the GI50 is 4.99 µM and the TGI was above 100 µM.
Take `C#Cc1c(F)ccc2cc(O)cc(-c3ncc4c(N5CC6CCC(C5)N6)nc(OC[C@@]56CCCN5C[C@H](F)C6)nc4c3F)c12`: the GI50 is 10.9 µM and the TGI came out at 31.5 µM.
The corresponding values for `C=C(C)C(=O)Nc1ccc(NC(C)C)cc1` are above 100 µM and above 100 µM.
Turning to `COc1cc(CSc2nc3ccc(C)cc3c(=O)n2-c2ccccc2)cc(OC)c1OC`, the GI50 was 3.77 µM and the TGI is above 100 µM.
For `C=C(C)C(=O)O[C@H]1CC(=C)[C@@H]2C[C@H](O)[C@](O)(CCl)[C@@H]2[C@H]2OC(=O)C(=C)[C@@H]21`, the GI50 is 2.47 µM and the TGI is 6.14 µM.
With `O=C(O)CNC(=O)c1ccc(-c2ccccc2)cc1`, the TGI was above 100 µM.
`CCC1C2Cc3ccc(O)cc3C1(CC)CCN2C` (centres undefined) displayed a TGI above 100 µM.
As to `C(#Cc1ccccc1C#Cc1cccs1)c1cccs1`, the GI50 was 66.8 µM and the TGI was above 100 µM.
`COC1CC(OS(=O)(=O)c2ccc([N+](=O)[O-])cc2)C(OC(=O)c2ccccc2)C(C)O1` (centres undefined) gave a TGI above 100 µM.
On the same count and under the same terms, the value for `COc1ccc(C2=CC(c3ccc4c(c3)OCO4)c3c(c4ccccc4oc3=O)O2)cc1OC` (centres undefined) was above 100 µM.
In the case of `C=C1C(=O)O[C@H]2[C@H]1CC/C(COC(=O)NCc1cn(C)c3ccccc13)=C\CC[C@@]1(C)O[C@@H]21`, the GI50 was 1.96 µM and the TGI came to 5.24 µM.
For `CC(C)[C@H](N)C(=O)N1CCC[C@H]1B(O)O` the same measures were above 100 µM and above 100 µM.
`COc1ccc2cc(C(=O)/C=C/c3ccc(Cl)cc3Cl)ccc2c1`: the GI50 was 16.7 µM and the TGI is 36.2 µM.
`CC(C)(C)n1cc(-c2ccnc(NCCCNS(=O)(=O)c3ccc(C(F)(F)F)cc3)c2)c(-c2cccc(O)c2)n1`: the GI50 is 1.71 µM and the TGI came out at 3.53 µM.
As to `O=C1Nc2ccccc2/C1=C/C(=O)c1coc2c1C(=O)c1ccccc1C2=O`, the GI50 was above 100 µM and the TGI is above 100 µM.
With `Nc1c(C(=O)c2cccc(-c3ccncc3)c2)cnn1-c1ccc(F)cc1F`, the GI50 was 12.6 µM and the TGI was above 25 µM.
The corresponding values for `C=C1C(=O)O[C@H]2[C@H]1CC/C(COC(=O)NCc1ccc(Cn3c(=O)sn(CCCl)c3=O)cc1)=C\CC[C@@]1(C)O[C@@H]21` are 6.79 µM and 20.2 µM.
`COc1ccc2c(c1)c(=O)oc1cc(OC/C(C)=N\O)ccc12`: the GI50 is 33.4 µM and the TGI is above 100 µM.
